Earlier results in patent US20150018389A1, “METHOD FOR TREATING PARKINSONS DISEASE AND OTHER NEUROLOGICAL DISEASES” (priority 2013, published 2015).

Tests used:
HIV [1] = settings: infected cell lines induced with tumor necrosis factor alpha (Schauf et al. 1992)
CD4 lymphocyte counts = settings: erythema nodosum leprosum (Moncada et al. 1985)
[2] = not given; remark: listed apart in the source
[3] = tested on: tumor necrosis factor alpha production by stimulated monocytes; settings: stimulated monocytes (Sampaio et al. 1991)
[4] = not given; remark: listed apart in the source
[5] = tested on: tumor necrosis factor alpha; settings: erythema nodosum leprosum, treatment with thalidomide (Sampaio et al. 1992)
[6] = serum vs in vitro pH 7.4
HIV [7] = settings: peripheral blood mononuclear cells of HIV-infected patients

absorption ([4]; humans, orally administered): poorly absorbed | plasma protein binding ([4]; in vivo): highly bound to plasma proteins | hydrolytic cleavage in serum compared with in vitro at pH 7.4 [6]: much slower
SMILES: O=C1CCC(N2C(=O)c3ccccc3C2=O)C(=O)N1 (racemic) [Thalidomide, N-phthalidoglutarimide]
HIV expression (HIV [1]): inhibited | previously suppressed CD4 lymphocyte counts (CD4 lymphocyte counts): increases | side effects in humans: somnolence, teratogenicity and, upon extended administration, peripheral neuropathy | toxicity in a series of animal studies [2]: has not been toxic | tumor necrosis factor alpha production [3]: inhibit | elevated tumor necrosis factor alpha levels [5]: reduced | HIV production (HIV [7]): reduce
